Earlier results, collected in patent US10967066B2, “Stapled acid-sensitive endosome disrupting alginates” (University of Pittsburgh—Of the Commonwealth System of …, priority 2015, dated 2021).

Tests used:
[1] = system: cancer cells
[2] = system: tumors; details: mice

CC(C)c1cc(C(=O)[O-])c(O)c(C(C)C)c1.CC(C)c1cc(C(=O)[O-])c(O)c(C(C)C)c1.[Cu+2] [Cu(II)DIPS, copper(II) (3,5-diisopropylsalicylate)2]
hydrogen peroxide accumulation and cell death in cancer cells [1]: induce hydrogen peroxide accumulation due to the conversion of radical oxygen into hydrogen peroxide, with this accumulation of hydrogen peroxide leading to cell death in cancer cells | clearing tumors [2]: effective in clearing tumors in mice
